The values below are quoted from earlier work in US8476259B2, “Fasudil in combination therapies for the treatment of pulmonary arterial hypertension” (Asahi Kasei Pharma Corporation, priority 2005, dated 2013).

Series [1] relates to Rho-kinase. To be noted: administered to rats.
Another series deals with PAH. To be noted: oral.
For series [2], the system named is progressive pulmonary arterial hypertension. To be noted: two experimental models.
Series [3] deals with Rho-kinase. To be noted: read-out: K(i) value for Rho-kinase.
The subject of series [4] is pulmonary hypertension in rats. The note with it: for pulmonary vasodilation: spontaneous PH in fawn-hooded rats.
The subject of another series is chronically hypoxic rats. The note with it: for high pulmonary arterial pressure: intravenous or oral treatment.
For another series, the system named is chronic hypoxic mice. To be noted: for development of chronic hypoxia-induced PH: intravenous or oral treatment.
Series [5] relates to monocrotaline-induced PH in rats. To be noted: for pulmonary arterial lesions: intravenous or oral treatment.
For series [6], the system named is rat models of systemic hypertension. The note with it: oral.
For series [7], the system named is patients with severe pulmonary hypertension. To be noted: intravenous.
A further series deals with patients with severe PAH. The note with it: versus placebo.
In series [8] the test system is patients with pulmonary hypertension. To be noted: aerosolization.
The test system of another series is rats injected with IL-6. To be noted: simultaneous treatment.
The test system of series [9] is spontaneously hypertensive rats. To be noted: rat, in vivo.
In series [10] the test system is patients with Raynaud's phenomenon and systemic sclerosis. To be noted: human, in vivo.
Series [11] relates to patients with angiographically proven stable angina.
The conditions of series [12]: in vivo.
Setting [13] is: inhaled, monocrotaline-induced PH, chronically hypoxic rats.
[14] abbreviates: all 20 patients, 100 mg 3 times a day, 2 weeks.
Setting [15] is: subgroup (n=8) with well-developed collaterals.

Where two headings read alike, the source gives them in different places.

Take `CC#CCC(C)[C@H](O)/C=C/[C@@H]1[C@H]2c3cccc(CCCC(=O)O)c3O[C@H]2C[C@H]1O` (mixture of isomers) [beraprost]: the “inhibitory effect on Rho-kinase” value in the series on Rho-kinase [1] was “lack the inhibitory effect on Rho-kinase”. In the series with PAH, the “benefit in PAH over time” value is “benefit in a study in PAH at 3 and 6 months but not at 9 or 12 months”.

As to `Cc1ccc(NC(=O)c2ccc(CN3CCN(C)CC3)cc2)cc1Nc1nccc(-c2cccnc2)n1` [Gleevec], in series [2], the “lung vascular remodeling, pulmonary hypertension and right heart hypertrophy” value was “virtually complete reversal”.

For `Cc1cncc2cccc(S(=O)(=O)N3CCCNC[C@@H]3C)c12` [H-1152P, (S)-(+)-2-methyl-1-[(4-methyl-5-isoquinoline)sulfonyl]-homopiperazine], the Ki on Rho-kinase [3] is 1.6 nM.

Turning to `C[C@@H](N)[C@H]1CC[C@H](C(=O)Nc2ccncc2)CC1` [Y-27632], the “mean pulmonary arterial pressure” value in series [4] (5 minutes of inhaled Y-27632) is “decreased mean pulmonary arterial pressure without reducing mean systemic arterial pressure”. Further, in series [4] (inhaled), the “duration of hypotensive effect on hypoxic pulmonary hypertension” value is listed as “at least 5 hrs”. Also, in [4] (setting [13]), the pulmonary vasodilation entry is “sustained and selective pulmonary vasodilation”. In the series with chronically hypoxic rats (intravenous), the “elevated pulmonary artery pressure, acute effect” value was “nearly normalized the elevated pulmonary artery pressure”. Further, in the series on chronically hypoxic rats, the “high pulmonary arterial pressure” value was “nearly normalizes”. Also, the “development of chronic hypoxia-induced PH” value in the series with chronic hypoxic mice is on record as “attenuates”. Further, in series [5], the pulmonary arterial lesions result is “reduces pulmonary arterial lesions”. The hypotensive effect entry in [6] (normotensive rats) is “smaller transient effect”; in series [6] (rat models of systemic hypertension), “potent hypotensive effects”.

On to `COc1ccccc1Oc1c(NS(=O)(=O)c2ccc(C(C)(C)C)cc2)nc(-c2ncccn2)nc1OCCO` [bosentan], for which, for the setting “higher dose”, the liver toxicity result is on record as “liver toxicity occurred with the higher dose”. Further, under “whole group, greater improvement at higher doses”, the “six minute walk test” value was “improved”.

For `O=S(=O)(c1cccc2cnccc12)N1CCCNCC1` [fasudil, 1-(5-isoquinolinesulfonyl)-homopiperazine], in series [4] (inhaled fasudil, monocrotaline-induced PH, spontaneous PH, chronically hypoxic rats), the “mean pulmonary arterial pressure” value is reported as “selective mean pulmonary arterial pressure reductions”. In series [4] (setting [13]), the pulmonary vasodilation result is “sustained and selective pulmonary vasodilation”. Further, the “high pulmonary arterial pressure” value with chronically hypoxic rats is reported as “nearly normalizes”. Besides, the “development of chronic hypoxia-induced PH” value with chronic hypoxic mice is listed as “attenuates”. For the same compound, the pulmonary arterial lesions result in series [5] is “reduces pulmonary arterial lesions”. Besides, in series [7], the pulmonary vascular resistance entry was “significantly reduced” and the side effects entry was “without side effects”.

Consider `CC#CCC(C)[C@H](O)/C=C/[C@@H]1[C@H]2C/C(=C/CCCC(=O)O)C[C@H]2C[C@H]1O` (some centres unmarked) [iloprost], for which the exercise capacity entry in the series on patients with severe PAH is “improved exercise capacity”.

Take `CCCCC[C@H](O)/C=C/[C@@H]1[C@H]2C/C(=C/CCCC(=O)O)O[C@H]2C[C@H]1O` [prostacyclin]: the “inhibitory effect on Rho-kinase” value in the series on Rho-kinase [1] is recorded as “lack the inhibitory effect on Rho-kinase”. Further, in series [8], the duration of effects is 15 min.

With `COc1cccc(CCc2ccccc2OCC(CN(C)C)OC(=O)CCC(=O)O)c1` (centres unmarked) [sarpogrelate, (φ-amino-alkoxy)phenyl-ethylethylbenzene], the “pulmonary vascular remodeling, right side heart failure and mortality” value in [5] (immediately following monocrotaline injection) was “suppressed the severe pulmonary vascular remodeling and right side heart failure and reduced mortality”. Also, the “reversal of established pulmonary hypertension” value in series [5] (late treatment) is “failed to reverse established pulmonary hypertension”. Besides, in series [5] (rat, in vivo), the “number of proliferating cell nuclear antigen-positive cells” value is reported as “reduced”; the “severity of pulmonary hypertension (medial thickness of small pulmonary arteries and right ventricle/left ventricle and septum ratio)” value is recorded as “reduced”; the “thickening of the alveolar walls and interstitial inflammatory cell infiltration” value is recorded as “reduced”. For the same compound, in the series with rats injected with IL-6, the “IL-6-induced increase in medial thickness of small pulmonary arteries and right ventricular hypertrophy” value was “prevented”. The “systolic blood pressure or heart weight” value in [9] is “no effect”. Besides, in series [10], the “respiratory failure and mean pulmonary arterial pressure” value is given as “significantly decreased”. In addition, in [11] (setting [14]), the SAS score result is recorded as “significantly increased” and the “exercise time to the onset of 0.1-mV ST depression” value is “prolonged”. In series [11] (patients (n=12) without well-developed collaterals), the all parameters entry is listed as “not significantly changed”. Moreover, in series [11] (setting [15]), the SAS score is 6.2±1.3 METS, the “increase of double product at the onset of 0.1-mV ST depression” value is 15% and the “time to the onset of 0.1-mV ST depression” value was 295 ± 127 s.

For `CCCc1nn(C)c2c(=O)[nH]c(-c3cc(S(=O)(=O)N4CCN(C)CC4)ccc3OCC)nc12` [sildenafil], the pulmonary arterial pressure result in the series with chronically hypoxic rats (sildenafil, chronic hypoxic rats) is given as “reduces”. Moreover, the right ventricular hypertrophy entry with chronic hypoxic mice (chronic hypoxic mice) was “reduces right ventricular hypertrophy”. Moreover, the survival rate result in [5] (PH induced by monocrotaline injection) is “improves survival rate”.

Regarding `Cc1cc2c(cc1CC(=O)c1sccc1S(=O)(=O)Nc1onc(C)c1Cl)OCO2` [sitaxsentan], in series [12], the “decrease in pulmonary vascular resistance” value was 30% and the “six minute walk test” value is “improvement”.
